# Experimental data: the supplement of paper PMC10307832
# Columns and labels:
# Assay in all cases: relative viability (nuclei count vs DMSO), 5 days (fraction); higher = more cells survive
# VE-821 + Olaparib = compound: CS(=O)(=O)c1ccc(-c2cnc(N)c(C(=O)Nc3ccccc3)n2)cc1 [VE-821] + O=C(c1cc(Cc2n[nH]c(=O)c3ccccc23)ccc1F)N1CCN(C(=O)C2CC2)CC1 [Olaparib] (partner 8 µM)
# Procedure, shortened: (§1)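 Nuclei were stained with Hoechst during a one-step fixation (final 0.05% Triton X-100, 1% formaldehyde, 1 ug/ml Hoechst) carried out 5 days after dosing, then counted on 4× images. The cells, lung cancer lines in 1536-well plates, had been dosed by pin tool the day after seeding with one drug alone or a fixed anchor-drug dose plus five library-drug doses (not always all listed) in √10 steps. Relative viability is the nuclei count in treated wells divided by that in vehicle wells, and each value is the median of duplicate plates.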
# Vismodegib + Crizotinib = compound: CS(=O)(=O)c1ccc(C(=O)Nc2ccc(Cl)c(-c3ccccn3)c2)c(Cl)c1 [Vismodegib] + C[C@@H](Oc1cc(-c2cnn(C3CCNCC3)c2)cnc1N)c1c(Cl)ccc(F)c1Cl [Crizotinib] (partner 1 µM)
# Procedure, shortened: as §1
# VE-821 + Trametinib = compound: CS(=O)(=O)c1ccc(-c2cnc(N)c(C(=O)Nc3ccccc3)n2)cc1 [VE-821] + CC(=O)Nc1cccc(-n2c(=O)n(C3CC3)c(=O)c3c(Nc4ccc(I)cc4F)n(C)c(=O)c(C)c32)c1 [Trametinib] (partner 0.02 µM)
# Procedure, shortened: as §1
# VE-821 + Lapatinib = compound: CS(=O)(=O)c1ccc(-c2cnc(N)c(C(=O)Nc3ccccc3)n2)cc1 [VE-821] + CS(=O)(=O)CCNCc1ccc(-c2ccc3ncnc(Nc4ccc(OCc5cccc(F)c5)c(Cl)c4)c3c2)o1 [Lapatinib] (partner 2 µM)
# Procedure, shortened: as §1
cell line,measurement,setting,value
UMC-11,relative viability,VE-821 + Olaparib; first compound 0.08 µM,0.82
same,relative viability,VE-821 + Olaparib; first compound 0.253 µM,0.429
same,relative viability,VE-821 + Olaparib; first compound 0.8 µM,0.374
same,relative viability,VE-821 + Olaparib; first compound 2.53 µM,0.274
same,relative viability,VE-821 + Olaparib; first compound 8 µM,0.208
same,relative viability,Vismodegib + Crizotinib; first compound 0.08 µM,0.57
same,relative viability,Vismodegib + Crizotinib; first compound 0.253 µM,0.56
same,relative viability,Vismodegib + Crizotinib; first compound 0.8 µM,0.723
same,relative viability,Vismodegib + Crizotinib; first compound 2.53 µM,0.606
same,relative viability,Vismodegib + Crizotinib; first compound 8 µM,0.652
same,relative viability,VE-821 + Trametinib; first compound 0.08 µM,0.738
same,relative viability,VE-821 + Trametinib; first compound 0.253 µM,0.596
same,relative viability,VE-821 + Trametinib; first compound 0.8 µM,0.516
same,relative viability,VE-821 + Trametinib; first compound 2.53 µM,0.798
same,relative viability,VE-821 + Trametinib; first compound 8 µM,0.38
same,relative viability,VE-821 + Lapatinib; first compound 0.08 µM,1.23
same,relative viability,VE-821 + Lapatinib; first compound 0.253 µM,0.845
same,relative viability,VE-821 + Lapatinib; first compound 0.8 µM,0.916
same,relative viability,VE-821 + Lapatinib; first compound 2.53 µM,1.12
same,relative viability,VE-821 + Lapatinib; first compound 8 µM,0.644
